Assay results as given in paper PMC5841205, “Pharmacological targeting of apelin impairs glioblastoma growth” (Brain, 2017).

Columns and labels:
[1] = system: GSCs (glioblastoma patient-derived cells with stem-like properties); test: Tumoursphere formation, APLNR antagonists and TMZ; assay type: cell-based, human; settings: GSC#1, TMZ 10–100 μM, Day 5
Method: (§1) To test the tumoursphere formation, GSCs (100 cells/µl) were plated in triplicate in indicated media as previously described ([Harford-Wright et al., 2016]). Cells were manually dissociated each day and a single cell suspension maintained until Day 5. Tumourspheres were counted in five random fields of view, and the mean from the triplicate of each condition calculated from three independent experiments.
(§2) Figure 4 Pharmacological inhibition of APLNR impairs the effects of the endothelial secretome on GSCs by inhibition of GSK3β signalling. (A) Molecular structure and primary sequence of the competitive APLNR antagonist MM54. […] (J) Reverse protein phase array (RPPA) from the TCGA database were analysed in low and high APLNR expressing glioblastoma samples. *P < 0.05; **P < 0.01 compared to the low APLNR condition. […] (N) GSC #1 received sic (control) or GSK3B targeting siRNA (siGSK3B) and tumoursphere per field of view was quantified in MF supplemented with purified apelin (APLN, 1 μM). *P < 0.05 compared to the sic MF condition.
Figure 5 Pharmacological inhibition of APLNR by MM54 impairs the in vitro expansion of temozolomide-resistant GSCs. (A) Cell viability following treatment with DMSO, MM54 (2, 20 and 100 μM) or temozolomide (TMZ, 50 μM) was measured using UptiBlue in different cell types for 3 days. […]

[2] = system: U87 glioblastoma cell line; test: Cell viability (UptiBlue), U87; assay type: cell-based, human
Method: (§3) Cell viability in response to MM54 was tested using the UptiBlue reagent (Interchim), a fluorometric/colorimetric growth indicator based on the detection of metabolic activity. Briefly, cells were seeded at a density of 2 × 10^3 per well, UptiBlue added at a concentration of 10% v/v and cells maintained at 37°C 5% CO2 until analysis. Absorbance was measured at Day 5 following treatment at 570 and 600 nm on a FLUOStar OPTIMA (BMG Labtech) plate reader, and the percentage of cell viability calculated according to the manufacturer’s instructions.
(§4) Figure 5 Pharmacological inhibition of APLNR by MM54 impairs the in vitro expansion of temozolomide-resistant GSCs. (A) Cell viability following treatment with DMSO, MM54 (2, 20 and 100 μM) or temozolomide (TMZ, 50 μM) was measured using UptiBlue in different cell types for 3 days. […] (B and C) Cell viability following treatment with DMSO or TMZ (100 μM) was measured using UptiBlue in GSCs #1, #4, #9, and #12 for 3 days. […] (D) GSC#1 viability was assessed following combined treatment with MM54 (0.2–20 μM) and TMZ (constant ratios TMZ:MM54 2.5:1, 5:1, and 10:1) in NS and human brain endothelial cell-conditioned medium (EC-CM) conditions. (E and F) Tumoursphere per field of view (fov) and ALDH activity were assessed in response to MM54 (0.2–100 μM) or TMZ (10–100 μM) treatment at Day 5. […]

[3] = system: LN229 glioblastoma cell line; test: Cell viability (UptiBlue), LN229; assay type: cell-based, human; settings: TMZ
Method: as §3, §4

GSCs #1, #4, #9, and #12 = test: Cell viability (UptiBlue), GSCs; assay type: cell-based, human; settings: TMZ 100 μM, GSCs #1, #4 and #9, serum-containing medium, 3 days
Method: as §3, §4

GSC#1 ALDH activity = test: ALDH activity (ALDEFLUOR flow cytometry); assay type: cell-based, human
Method: Analysis of aldehyde dehydrogenase (ALDH) activity was performed using the ALDEFLUOR™ assay kit (Stem Cell Technologies). Briefly, cells were incubated with ALDEFLUOR alone or in combination with an ALDH activity inhibitor (DAEB) at 37°C for 45 min. This flow cytometry-based staining allows monitoring ALDH activity in stem, progenitor and cancer precursor cells. The ALDH activity is considered positive in comparison to cells incubated with DEAB reagent.
(§5) Figure 4 Pharmacological inhibition of APLNR impairs the effects of the endothelial secretome on GSCs by inhibition of GSK3β signalling. (A) Molecular structure and primary sequence of the competitive APLNR antagonist MM54. […] (C) The percentage of calcium flux inhibition following MM54 treatment (0.4–10 μM) in the G-protein coupled receptor hits. (D) Tumoursphere per field of view (fov) in response to MM54 (0–4 μM) treatment in GSC#1 maintained in human brain endothelial cell-conditioned medium (EC-CM) and apelin-supplemented mitogen-free MF media (APLN, 1 μM) for 5 days. *P < 0.05 compared to EC-CM DMSO control, ^#P < 0.05 compared to apelin DMSO control. […] (F) Stem cell frequency in apelin supplemented media in response to MM54 (2 μM) in GSCs #1, #4, #9 and #12. *P < 0.05 compared to the vehicle condition. (G) Flow cytometry analysis of the percentage of ALDH positive and negative GSC #1 in response to 2, 10 or 20 μM of MM54 at Day 5. ALDH activity corresponds to the percentage of cells that contains ALDH activity (positive) or not (negative), normalized to the vehicle condition. *P < 0.05; ***P < 0.001 compared to the vehicle condition. […] (J) Reverse protein phase array (RPPA) from the TCGA database were analysed in low and high APLNR expressing glioblastoma samples. *P < 0.05; **P < 0.01 compared to the low APLNR condition. […] (N) GSC #1 received sic (control) or GSK3B targeting siRNA (siGSK3B) and tumoursphere per field of view was quantified in MF supplemented with purified apelin (APLN, 1 μM). *P < 0.05 compared to the sic MF condition.
as §4

GSC#1 [4] = test: Tumoursphere formation, tideglusib; assay type: cell-based, human; settings: GSC#1, tideglusib 2.5 μM with apelin 1 μM
Method: as §1
as §2, with “MM54. […] (C) The percentage of calcium flux inhibition following MM54 treatment (0.4–10 μM) in the G-protein coupled receptor hits.” for “MM54.”

GSC #1 = test: Limiting dilution assay, tideglusib; assay type: cell-based, human; settings: GSC#1, tideglusib 2.5 μM with apelin 1 μM
Method: as §5, with “5.” for “5. ALDH activity corresponds to the percentage of cells that contains ALDH activity (positive) or not (negative), normalized to the vehicle condition. *P < 0.05; ***P < 0.001 compared to the vehicle condition.”

[5] = system: GSCs (glioblastoma patient-derived cells with stem-like properties); test: Tumoursphere formation, apelin peptides; assay type: cell-based, human; settings: for number of tumourspheres: 1 μM apelin peptide in mitogen-free medium (MF), GSCs #1, #9, #12 and #13, vs MF, 5 days
Description: Glioblastoma patient-derived cells with stem-like properties (GSCs) were isolated as previously described ([Treps et al., 2016]). Briefly, tumours were dissociated using the MACsDissociator (Miltenyi) and each GSC characterized for their self-renewal capabilities, cell surface antigens, expression of stemness markers, their ability to differentiate, and to initiate tumour formation (Supplementary Table 1). GSCs 1–16 were maintained as spheres in NS medium (DMEM-F12, with N2, G5 and B27 supplements, GlutaMAX™ and antibiotics, Life Technologies). To induce differentiation in GSCs, the three supplements were omitted and 10% foetal bovine serum added to the media.
as §1
(§6) (C) Confocal analysis of NESTIN (green), SOX2 (red) and nuclei (DAPI, blue) in GSC#1 grown in NS, MF, human brain endothelial cell-conditioned medium (EC-CM) or MF+APLN (1 μM). Scale bars = 20 µm. (D) Linear regression plot of in vitro limiting dilution assay (LDA) for GSC#1 in NS, EC-CM, MF, and MF+APLN (1 μM). Data are representative of n = 2. […] (F) Stem cell frequency in GSCs #1, #2, #4, #9 and #12 in response to MF and APLN conditions. […] (H) EC received non-silencing RNA (sic) or siRNA targeting APLN (siAPLN) and APLN knockdown efficiency assessed by RT-PCR and ELISA. […] (K) FACS analysis of the proliferation marker Ki67 in GSCs #4 and #9 in NS and MF+APLN conditions. All panels are representative of n = 3, unless otherwise specified.

GSCs #4 and #9 = settings: GSCs #4 and #9, apelin-supplemented MF
Method: as §6

GSC#1 [6] = settings: GSC#1, synthetic apelin 1 μM added to MF
Method: as §6

[7] = system: GSCs (glioblastoma patient-derived cells with stem-like properties)
Method: as §6

endothelial cells = settings: ref Kleinz and Davenport, 2005; cited from earlier work
Description: Moreover, apelin has been implicated in physiological and pathological angiogenesis ([Kaelin et al., 2007]). […] In keeping with this, a recent study proposed apelin as a marker for monitoring tumour vessel normalization and response to anti-angiogenic therapy ([Zhang et al., 2016]; [Zuurbier et al., 2017]).

Molecule: Cn1nnc2c(C(N)=O)ncn2c1=O [TMZ, Temozolomide]
- concentrations needed for tumoursphere impairment comparable to MM54 [1]: required much higher concentrations to achieve comparable results
- viability, U87 ([2]; TMZ): significantly reduced the viability
- viability, U87 grown as adherent differentiated cells ([2]; TMZ 100 μM, serum-containing medium, 3 days): reduces the viability
- viability, LN229 [3]: significantly reduced the viability
- viability, GSCs grown as adherent differentiated cells (GSCs #1, #4, #9, and #12): reduces the viability
- concentrations needed for ALDH impairment comparable to MM54 (GSC#1 ALDH activity; GSC#1, TMZ 10–100 μM, Day 5): required much higher concentrations to achieve comparable results
- activity of the stem marker ALDH, TMZ alone (GSC#1 ALDH activity; TMZ alone): does not alter the activity of the stem marker ALDH
- potentiation of MM54 effect on ALDH activity (GSC#1 ALDH activity; TMZ with MM54 suboptimal dose <2 μM, MM54:TMZ 1:2.5, 1:5, 1:10): significantly potentiates the effects of MM54
- percentage of ALDH-positive cells, TMZ combined with suboptimal dose of MM54 (GSC#1 ALDH activity; TMZ with suboptimal dose of MM54): profound alterations in the percentage of ALDH-positive cells

Molecule: O=c1sn(-c2cccc3ccccc23)c(=O)n1Cc1ccccc1 [tideglusib]
- effect on apelin-mediated increase in tumourspheres (GSC#1 [4]): apelin was less potent at increasing tumourspheres and self-renewal
- effect on apelin-mediated increase in self-renewal (LDA) (GSC #1): apelin was less potent at increasing tumourspheres and self-renewal

Molecule: pyr-apelin-13
- number of tumourspheres ([5]; n = 3): increased the number of tumourspheres compared to mitogen-free media

Molecule: apelin-13
- number of tumourspheres ([5]; n = 3): increased the number of tumourspheres compared to mitogen-free media
- potency at sustaining GSCs (tumourspheres) ([5]; 1 μM, compared among apelin-13, pyr-apelin-13 and apelin-36): most potent at sustaining GSCs
- tumourspheres, increasing concentrations ([5]; GSC#1, increasing apelin-13 concentrations in MF, n = 3): potent and sustained increase in tumourspheres from the lowest concentration
- stem properties of GSCs in APLN-depleted EC-CM ([5]; GSC#1 in siAPLN EC-CM plus apelin 1 μM, tumoursphere and LDA): restored this effect
- ability of GSCs to expand as tumourspheres ([5]; panel of 16 patient-derived GSCs, apelin-supplemented MF vs MF, n = 3): significantly increased the ability of GSCs to expand as tumourspheres
- proliferation (Ki67) of GSCs (GSCs #4 and #9): did not observe any obvious effect
- rescue of NESTIN and SOX2 expression and ability to form tumourspheres (GSC#1 [6]): rescued by the addition of synthetic apelin
- frequency of colony-forming cells ([7]; GSC#1, apelin 1 μM in MF vs MF, two weeks, n = 2): increase in the frequency of colony-forming cells
- frequency of stem cells ([7]; GSCs #1, #2, #4, #9 and #12, apelin vs MF): increased the frequency of stem cells
- endothelial cell proliferation and vessel sprouting (endothelial cells): induces proliferation and vessel sprouting in endothelial cells
